Experimental data: ChEMBL document CHEMBL5523678, “Synthesis and clinical application of new drugs approved by FDA in 2023” (Eur J Med Chem, 2024)

Assays:
[1] = Inhibition of Drosophila melanogaster GABA receptor
[2] = Inhibition of Gamma secretase (unknown origin); parameters: species or system Homo sapiens

Row | Structure (SMILES) | IC50 [1] | IC50 [2]
1 | Cc1cc(C2=NO[C@@](c3cc(Cl)c(Cl)c(Cl)c3)(C(F)(F)F)C2)sc1C(=O)NCC(=O)NCC(F)(F)F [LOTILANER] | 23.8 nM | –
2 | CCC[C@H](N[C@H]1CCc2cc(F)cc(F)c2C1)C(=O)Nc1cn(C(C)(C)CNCC(C)(C)C)cn1 [NIROGACESTAT] | – | 6.2 nM
